Values quoted from earlier work as cited in PubChem BioAssay AID1259409 (Chemical Carcinogenesis Research Information System (CCRIS), 2018).
“And” between values parts separate entries of the source, which are not always exact repeats. Identical values can stand only once.

Test system: rodent chemically induced tumor inhibition, incidence and multiplicity
Assay: CCRIS tumor inhibitor studies
Settings: Route [Inhibitor]: ORAL, Species: RAT

O=C(O)c1ccc(O)c(O)c1
tumour outcome (control, treated, inhibition, significance) (Carcinogen: 2-AMINO-1-METHYL-6-PHENYLIMIDAZO[4,5-B]PYRIDINE [105650-23-5], Dose [Inhibitor]: 2,000 PPM IN DIET FOR 4 WK BEGINNING WK PRIOR TO FIRST CARCINOGEN DOSE (STUDY DURATION: 25 WK), Strain/Sex: SPRAGUE-DAWLEY/FEMALE, Target Tissue: Type of Lesion: MAMMARY GLAND: FIBROADENOMA OR DUCTAL CARCINOMA, Dose [Carcinogen]: 85 MG/KG BW 2X/WK FOR 4 WK (STUDY DURATION: 25 WK), Promoter: NONE): 63%, 59%, 6%, not significant | tumour outcome (control, treated, inhibition, significance) (Carcinogen: 4-NITROQUINOLINE-1-OXIDE, 56-57-5, Dose [Inhibitor]: 0, 500 PPM IN DIET FOR 10 WK BEGINNING 1 WK PRIOR TO CARCINOGEN TREATMENT (STUDY DURATION: 32 WK), Strain/Sex: F344/MALE, Target Tissue: Type of Lesion: TONGUE: PAPILLOMA, Dose [Carcinogen]: 20 PPM IN DRINKING WATER FOR 8 WK, Promoter: NONE USED): 3/19 (16%), 3/20 (15%), 6%, not significant and 16%, 15%, 6%, not significant | tumour outcome (control, treated, inhibition, significance) (Carcinogen: 4-NITROQUINOLINE-1-OXIDE, 56-57-5, Dose [Inhibitor]: 0, 500 PPM IN DIET FOR 22 WK BEGINNING 1 WK POST CARCINOGEN TREATMENT (STUDY DURATION: 32 WK), Strain/Sex: F344/MALE, Target Tissue: Type of Lesion: TONGUE: PAPILLOMA, Dose [Carcinogen]: 20 PPM IN DRINKING WATER FOR 8 WK, Promoter: NONE USED): 3/19 (16%), 3/21 (14%), 13%, not significant and 16%, 14%, 13%, not significant | tumour outcome (control, treated, inhibition, significance) (Carcinogen: 4-NITROQUINOLINE-1-OXIDE, 56-57-5, Dose [Inhibitor]: 0, 1000 PPM IN DIET FOR 10 WK BEGINNING 1 WK PRIOR TO CARCINOGEN TREATMENT (STUDY DURATION: 32 WK), Strain/Sex: F344/MALE, Target Tissue: Type of Lesion: TONGUE: PAPILLOMA, Dose [Carcinogen]: 20 PPM IN DRINKING WATER FOR 8 WK, Promoter: NONE USED): 3/19 (16%), 2/19 (11%), 31%, not significant and 16%, 11%, 31%, not significant | tumour outcome (control, treated, inhibition, significance) (Carcinogen: 4-NITROQUINOLINE-1-OXIDE, 56-57-5, Dose [Inhibitor]: 0, 1000 PPM IN DIET FOR 22 WK BEGINNING 1 WK POST CARCINOGEN TREATMENT (STUDY DURATION: 32 WK), Strain/Sex: F344/MALE, Target Tissue: Type of Lesion: TONGUE: PAPILLOMA, Dose [Carcinogen]: 20 PPM IN DRINKING WATER FOR 8 WK, Promoter: NONE USED): 3/19 (16%), 4/19 (21%), -31%, not significant | tumour outcome (control, treated, inhibition, significance) (Carcinogen: 4-NITROQUINOLINE-1-OXIDE, 56-57-5, Dose [Inhibitor]: 0, 2000 PPM IN DIET FOR 10 WK BEGINNING 1 WK PRIOR TO CARCINOGEN TREATMENT (STUDY DURATION: 32 WK), Strain/Sex: F344/MALE, Target Tissue: Type of Lesion: TONGUE: PAPILLOMA, Dose [Carcinogen]: 20 PPM IN DRINKING WATER FOR 8 WK, Promoter: NONE USED): 3/19 (16%), 2/21 (10%), 38%, not significant and 16%, 10%, 38%, not significant | tumour outcome (control, treated, inhibition, significance) (Carcinogen: 4-NITROQUINOLINE-1-OXIDE, 56-57-5, Dose [Inhibitor]: 0, 2000 PPM IN DIET FOR 22 WK BEGINNING 1 WK POST CARCINOGEN TREATMENT (STUDY DURATION: 32 WK), Strain/Sex: F344/MALE, Target Tissue: Type of Lesion: TONGUE: PAPILLOMA, Dose [Carcinogen]: 20 PPM IN DRINKING WATER FOR 8 WK, Promoter: NONE USED): 3/19 (16%), 2/20 (10%), 38%, not significant and 16%, 10%, 38%, not significant | tumour outcome (control, treated, inhibition, significance) (Carcinogen: AZOXYMETHANE, 24843-45-2, Dose [Inhibitor]: 0, 500 PPM IN DIET FOR 28 WK BEGINNING 1 WK POST CARCINOGEN TREATMENT (STUDY DURATION: 32 WK), Strain/Sex: F344/MALE, Target Tissue: Type of Lesion: COLON: ADENOMA, Dose [Carcinogen]: 15 MG/KG BW 1/WK FOR 3 WK, Promoter: NONE USED): 10%, 15%, -50%, not significant | tumour outcome (control, treated, inhibition, significance) (Carcinogen: AZOXYMETHANE, 25843-45-2, Dose [Inhibitor]: 0, 250 PPM IN DIET FOR 4 WK BEGINNING 1 WK PRIOR TO CARCINOGEN TREATMENT (STUDY DURATION: 32 WK), Strain/Sex: F344/MALE, Target Tissue: Type of Lesion: COLON: ADENOCARCINOMA, Dose [Carcinogen]: 15 MG/KG BW 1/WK FOR 3 WK, Promoter: NONE USED): 75%, 40%, 47%, not significant | tumour outcome (control, treated, inhibition, significance) (Carcinogen: AZOXYMETHANE, 25843-45-2, Dose [Inhibitor]: 0, 250 PPM IN DIET FOR 4 WK BEGINNING 1 WK PRIOR TO CARCINOGEN TREATMENT (STUDY DURATION: 32 WK), Strain/Sex: F344/MALE, Target Tissue: Type of Lesion: COLON: ADENOMA, Dose [Carcinogen]: 15 MG/KG BW 1/WK FOR 3 WK, Promoter: NONE USED): 10%, 5%, 50%, not significant | tumour outcome (control, treated, inhibition, significance) (Carcinogen: AZOXYMETHANE, 25843-45-2, Dose [Inhibitor]: 0, 250 PPM IN DIET FOR 4 WK BEGINNING 1 WK PRIOR TO CARCINOGEN TREATMENT (STUDY DURATION: 32 WK), Strain/Sex: F344/MALE, Target Tissue: Type of Lesion: LARGE INTESTINE: ADENOCARCINOMA, Dose [Carcinogen]: 15 MG/KG BW 1/WK FOR 3 WK, Promoter: NONE USED): 15/20 (75%), 8/20 (40%), 47%, not significant | tumour outcome (control, treated, inhibition, significance) (Carcinogen: AZOXYMETHANE, 25843-45-2, Dose [Inhibitor]: 0, 250 PPM IN DIET FOR 4 WK BEGINNING 1 WK PRIOR TO CARCINOGEN TREATMENT (STUDY DURATION: 32 WK), Strain/Sex: F344/MALE, Target Tissue: Type of Lesion: LARGE INTESTINE: ADENOMA, Dose [Carcinogen]: 15 MG/KG BW 1/WK FOR 3 WK, Promoter: NONE USED): 2/20 (10%), 1/20 (5%), 50%, not significant | tumour outcome (control, treated, inhibition, significance) (Carcinogen: AZOXYMETHANE, 25843-45-2, Dose [Inhibitor]: 0, 250 PPM IN DIET FOR 4 WK BEGINNING 1 WK PRIOR TO CARCINOGEN TREATMENT (STUDY DURATION: 32 WK), Strain/Sex: F344/MALE, Target Tissue: Type of Lesion: SMALL INTESTINE: ADENOCARCINOMA, Dose [Carcinogen]: 15 MG/KG BW 1/WK FOR 3 WK, Promoter: NONE USED): 6/20 (30%), 7/20 (35%), -17%, not significant | tumour outcome (control, treated, inhibition, significance) (Carcinogen: AZOXYMETHANE, 25843-45-2, Dose [Inhibitor]: 0, 250 PPM IN DIET FOR 4 WK BEGINNING 1 WK PRIOR TO CARCINOGEN TREATMENT (STUDY DURATION: 32 WK), Strain/Sex: F344/MALE, Target Tissue: Type of Lesion: SMALL INTESTINE: ADENOMA, Dose [Carcinogen]: 15 MG/KG BW 1/WK FOR 3 WK, Promoter: NONE USED): 1/20 (5%), 0/20 (0%), 100%, not significant | tumour outcome (control, treated, inhibition, significance) (Carcinogen: AZOXYMETHANE, 25843-45-2, Dose [Inhibitor]: 0, 250 PPM IN DIET FOR 28 WK BEGINNING 1 WK POST CARCINOGEN TREATMENT (STUDY DURATION: 32 WK), Strain/Sex: F344/MALE, Target Tissue: Type of Lesion: COLON: ADENOCARCINOMA, Dose [Carcinogen]: 15 MG/KG BW 1/WK FOR 3 WK, Promoter: NONE USED): 75%, 40%, 47%, not significant | tumour outcome (control, treated, inhibition, significance) (Carcinogen: AZOXYMETHANE, 25843-45-2, Dose [Inhibitor]: 0, 250 PPM IN DIET FOR 28 WK BEGINNING 1 WK POST CARCINOGEN TREATMENT (STUDY DURATION: 32 WK), Strain/Sex: F344/MALE, Target Tissue: Type of Lesion: COLON: ADENOMA, Dose [Carcinogen]: 15 MG/KG BW 1/WK FOR 3 WK, Promoter: NONE USED): 10%, 20%, -100%, not significant | tumour outcome (control, treated, inhibition, significance) (Carcinogen: AZOXYMETHANE, 25843-45-2, Dose [Inhibitor]: 0, 250 PPM IN DIET FOR 28 WK BEGINNING 1 WK POST CARCINOGEN TREATMENT (STUDY DURATION: 32 WK), Strain/Sex: F344/MALE, Target Tissue: Type of Lesion: LARGE INTESTINE: ADENOCARCINOMA, Dose [Carcinogen]: 15 MG/KG BW 1/WK FOR 3 WK, Promoter: NONE USED): 15/20 (75%), 8/20 (40%), 47%, not significant | tumour outcome (control, treated, inhibition, significance) (Carcinogen: AZOXYMETHANE, 25843-45-2, Dose [Inhibitor]: 0, 250 PPM IN DIET FOR 28 WK BEGINNING 1 WK POST CARCINOGEN TREATMENT (STUDY DURATION: 32 WK), Strain/Sex: F344/MALE, Target Tissue: Type of Lesion: LARGE INTESTINE: ADENOMA, Dose [Carcinogen]: 15 MG/KG BW 1/WK FOR 3 WK, Promoter: NONE USED): 2/20 (10%), 4/20 (20%), -100%, not significant | tumour outcome (control, treated, inhibition, significance) (Carcinogen: AZOXYMETHANE, 25843-45-2, Dose [Inhibitor]: 0, 250 PPM IN DIET FOR 28 WK BEGINNING 1 WK POST CARCINOGEN TREATMENT (STUDY DURATION: 32 WK), Strain/Sex: F344/MALE, Target Tissue: Type of Lesion: SMALL INTESTINE: ADENOCARCINOMA, Dose [Carcinogen]: 15 MG/KG BW 1/WK FOR 3 WK, Promoter: NONE USED): 6/20 (30%), 5/20 (25%), 17%, not significant | tumour outcome (control, treated, inhibition, significance) (Carcinogen: AZOXYMETHANE, 25843-45-2, Dose [Inhibitor]: 0, 250 PPM IN DIET FOR 28 WK BEGINNING 1 WK POST CARCINOGEN TREATMENT (STUDY DURATION: 32 WK), Strain/Sex: F344/MALE, Target Tissue: Type of Lesion: SMALL INTESTINE: ADENOMA, Dose [Carcinogen]: 15 MG/KG BW 1/WK FOR 3 WK, Promoter: NONE USED): 1/20 (5%), 0/20 (0%), 100%, not significant
